Measured values taken from paper PMC10060354, “Discovery of a small molecule ligand of FRS2 that inhibits invasion and tumor growth” (Cellular Oncology, 2022).
Like-named read-outs stand apart in the source and are kept apart here.

What was measured:
[1] = test system: FRS2 (Y436) phosphorylation; test: Immunoblotting, FRS2 phosphorylation; assay type: cell-based, human; settings: RT-112 cells
Experimental: (§1) Cells were serum starved o.n. and 10 µM compound or 1 µM (BGJ398) were added 3 h before stimulation with 100 ng/ml bFGF for 15 min. Cells were lysed in RIPA buffer containing protease inhibitor cocktail and lysates resolved by SDS-PAGE. Membranes were probed with primary antibodies against phospho-FRS2, FRS2, phospho-ERK1/2, ERK1/2, pAKT, AKT and tubulin. Integrated density of immuno-reactive bands was quantified using Adobe Photoshop CS3. Integrated densities of phospho bands relative to non-phospho bands of same protein were calculated and plotted as fold-change relative to untreated control conditions. Compounds and BGJ398 were added in DMSO and corresponding DMSO concentrations were used in control samples.

ERK (pT202/Y204) = test: Immunoblotting, ERK phosphorylation; assay type: cell-based, human; settings: DAOY, SW780, M059K, SKOV3, AGS, DMS114 and RT-112 cells; 10 µM compound or 1 µM BGJ398
Experimental: as §1

human cancer cell lines = test: CellTiter-Glo viability (2D culture or 3D spheroids), cell line panel; assay type: cell-based; settings: SW780, RT-112, M059K and SKOV3 cells; 2.7 to 20 µM; 48 h
Experimental: Cell viability was determined using CellTiter-Glo® 2D or 3D cell viability assays (#G9242, #G9682, Promega). 500 cells/25 µl were seeded in flat bottom (#781,091, Greiner bio-one) or U-low adhesion (#4516, Corning) 384-well plate, 24 h prior to treatment. Increasing concentrations of compounds are deposited on cells using a HP Digital Drug Dispenser with DMSO total volume normalization. After 48 h, the CellTiter-Glo® 2D or 3D reagent was added (volume/volume) following manufacturer’s instructions. Plates were incubated at RT (room temperature) under agitation for 30 min and luminescence representing the number of viable cells was quantified with a Cytation 3 imaging reader (BioTek®). Experiments were performed independently three times with three technical replicas each.

DMS114 = test: Boyden chamber transwell migration assay; assay type: cell-based, human; settings: 24 h
Experimental: Transwells with 5 μm pore size (83.3932.500; Sarstedt) were coated with 50 µl of 0.06 μg/μl Pure Col Collagen I (5005; Advanced BioMatrix) dissolved in 100% EtOH for a final concentration of 10 μg/cm^2. 10,000 – 15,000 cells were resuspended in serum-free medium or serum-free medium containing the appropriate treatment and seeded in the upper chamber of a 24 well plate containing the coated transwell. The lower chamber was filled with either serum-free medium or serum-free medium with bFGF (25 ng/ml). Transwell migration was allowed for 24 h (DMS114) or 48 h (HCT116) at 37 °C, 5% CO2. Inserts were washed twice with PBS and the remaining non-invading cells on the upper surface of the membrane were removed using a cotton swab. The cells were fixed in 4% paraformaldehyde (28908; Thermo Fisher Scientific) in PBS for 5 min at RT. Fixed cells were washed twice with PBS and stained with DAPI for 15 min at RT. Inserts were washed three times in PBS before images of DAPI-stained nuclei were acquired using a widefield Nikon Ti2 microscope at 40 × magnification. Nuclei were counted on the membrane areas using ImageJ software and plotted on Prism 9 software (GraphPad).

pFRS2Y436 = test: IHC of pFRS2Y436 in SKOV3 flank tumor samples; assay type: in vivo, mice; settings: SKOV3 model; end of treatment
Experimental: IHC of tumor sections was performed by Sophistolab (Muttenz, Switzerland) on a Lecia BondMax instrument using Refine HRP-Kits (Leica DS9800). All buffer-solutions were purchased from Lecia Microsystems Newcastle, Ltd and used according to the manufacturer’s guidelines. Paraffin-slides were de-waxed, pre-treated and incubated as follows: ER-solution 2 for 10 min at 95 °C, ER-solution 2 for 20 min at 100 °C and ER-solution 2 for 30 min at 100 °C. pFRS2; Rabbit anti-Phospho FRS2 (PhosphoY 436, Abcam Limited; ab193363), dilution 1:150; phospho-p44/42 MAPK (Erk1/2Thr202/Tyr204) Rabbit mAb (Cell Signaling Technology #4370), dilution 1:1600. The IHC images were captured digitally using a Nikon Epifluorescence Eclipse Ti2 equipped with a Nikon DS-Ri2 color and a Nikon DS-Qi2 monochrome camera.

DAOY cells = test: Spheroid invasion assay (SIA), bFGF-induced collagen I invasion; assay type: cell-based, human; settings: for EC50: DAOY cells, n = 3 technical replicas, read-out: EC50 for the inhibition of bFGF-induced collagen I invasion
Experimental: 1000—2500 cells/well in 100 μl were seeded in 96 well Corning® Spheroid microplate (CLS4520, Sigma-Aldrich) or in cell-repellent 96 well microplate (650,790, Greiner Bio-one). SIA and analysis was performed as described before. In brief: After spheroid formation (24 – 72 h after seeding), 70 µl medium was removed and replaced with the collagen mixture (2.5 mg/ml Pure Col Collagen I (Advanced Biomatrix)), DMEM 1x (from 10 × stock, Sigma, D2429) and 0.4% Sodium bicarbonate (Sigma, S8761)), resulting in a final collagen concentration of 1.75 mg/ml. Embedded spheroids were stimulated with bFGF (100 ng/ml if not otherwise stated), HGF (30 ng /ml) or EGF (20 ng/ml) and distance of invaded cells quantified 24 – 48 h after embedding. Compounds and BGJ398 were added in Dimethylsulfoxid (DMSO) and corresponding DMSO concentrations were used in control samples.

[2] = test system: HepG2 human hepatocellular carcinoma cells; test: Cell viability (cytotoxicity, MTT) using HepG2; assay type: cell-based
Experimental: (§2) HepG2 human hepatocellular carcinoma cells were plated on 96-well tissue culture polystyrene plates for 24 h prior to dosing of the cells. The shortlisted hits were diluted in DMSO and serial dilutions are made 1% DMSO in growth media. Compounds at 8 concentrations in triplicate was then incubated for 72 h. Appropriate blanks and controls were run alongside the assay. One h prior to the end of the incubation period, the cells were loaded with MTT [yellow; 3-(4,5-dimethyl-2-thiazolyl)-2,5-diphenyl-2H-tetrazolium bromide], the plates were dried and re-solubilized using DMSO. The plates were then scanned at 570 nm using a plate reader.
(§3) The minimum effective concentration was determined from the lowest concentration whose mean value exceeds the significance level, provided either a clear dose–response relationship was observed, or at least two consecutive concentration points were above the significance level.

[3] = Cell viability (cytotoxicity, MTT) using HepG2; assay type: cell-based, human; settings: human, HepG2 cells, 72 h, summary sheet, read-out: MTT (AC50) Conc at which 50% of maximum efficacy is reached
Experimental: as §2, §3

[4] = Microsomal metabolic stability; assay type: in vitro ADME; settings: human, pooled liver microsomes
Experimental: Pooled liver microsomes were purchased from Xenotech (H0500) and were stored according to manufacturer’s instructions prior to use. […] A minus co-factor control incubation was included for each compound tested where 0.1 M phosphate buffer pH 7.4 was added instead of NADPH. Two control compounds were included with each species. All incubations were performed singularly for each shortlisted hit. Each compound was incubated for 0, 5, 15, 30 and 45 min. The minus co-factor was incubated for 45 min only. The reactions were stopped by transferring incubate into acetonitrile at the appropriate time points in a 1:3 ratio. The termination plates were centrifuged at 3000 rpm for 20 min at 4 °C to precipitate the protein. Following protein precipitation, the supernatant were combined in cassette of up to 4 compounds, internal standard for MS analysis was added and samples were analyzed using LC–MS/MS. From a plot of In peak area ratio (compound peak area/internal standard peak area) against time, the gradient of the lines were determined. Subsequently, half-life and intrinsic clearance were calculated using the following equations. Eliminationrateconstant(k)=(-gradient)Half-life(t1/2)(min)=0.693/kIntrinsicclearance(CLint)(μl/min/mgprotein)=Vx0.693/t1/2 where V = Incubation volume (µl) / Microsomal protein (mg)

Caco-2 cells = test: CaCo-2 permeability (bi-directional); settings: Direction A2B
Experimental: (§4) Caco-2 cells obtained from the ATCC were used between passage numbers 40—60. Cells were seeded onto Millipore Multiscreen Transwell plates at 1 × 10^5 cells/cm^2. The cells were cultured in DMEM and media was changed every two or three days. On day 20, the permeability study was performed. […] Cells were then incubated with HBSS at the desired pH in both apical and basolateral compartments for 40 min to stabilize physiological parameters.
(§5) The fluorescent integrity marker lucifer yellow was also included in the dosing solution. Analytical standards were prepared from test compound DMSO dilutions and transferred to buffer, maintaining a 1% v/v DMSO concentration.
(§6) For assessment of A-B permeability, HBSS was removed from the apical compartment and replaced with test compound dosing solution. The apical compartment insert was then placed into a companion plate containing fresh buffer (containing 1% v/v DMSO). For assessment of B-A permeability, HBSS was removed from the companion plate and replaced with test compound dosing solution. Fresh buffer (containing 1% v/v DMSO) was added to the apical compartment insert, which was then placed into the companion plate.
(§7) Compound permeability was assessed in duplicate. Compounds of known permeability characteristics were run as controls on each assay plate.
(§8) Test and control compounds were quantified by LC–MS/MS cassette analysis using a 7-point calibration with appropriate dilution of the samples. The starting concentration (C0) was determined from the dosing solution and the experimental recovery calculated from C0 and both apical and basolateral compartment concentrations. The integrity of the monolayer throughout the experiment was checked by monitoring lucifer yellow permeation using fluorimetric analysis.
(§9) The permeability coefficient (Papp) for each compound was calculated from the following equation: Papp=dQ/dtC0×A where dQ/dt was the rate of permeation of the drug across the cells, C0 was the donor compartment concentration at time zero and A was the area of the cell monolayer. C0 was obtained from analysis of the dosing solution.
(§10) Efflux ratio (ER) was calculated from mean A-B and B-A data. This was derived from: ER=Papp(B-A)Papp(A-B)

[5] = CaCo-2 permeability (bi-directional); settings: human
Experimental: as §4, §5, §6, §7, §8, §9, §10

[6] = Semi-thermodynamic solubility; assay type: physicochemical; settings: for solubility: Room Temp, Overnight, LC-MSMS
Experimental: In vitro ADME-T assays were performed by Cyprotex (Cyprotex Discovery, Cheshire, UK). […] The solution was agitated at ambient temperature overnight. The solutions were then centrifuged for 30 min at 3000 rpm at RT. The supernatant was removed and centrifuged for a further 30 min under the same conditions. An aliquot of the resulting supernatant was diluted in 50% methanol in water (containing an internal standard for MS analysis) prior to analysis by LC–MS/MS. […] These stocks were diluted in 50% methanol in water (containing an internal standard for MS analysis) prior to analysis by LC–MS/MS. The solubility of the shortlisted hits was calculated from a linear or quadratic fit of the standard curve.

## CCN1CCN(c2ccc(Nc3cc(N(C)C(=O)Nc4c(Cl)c(OC)cc(OC)c4Cl)ncn3)cc2)CC1 [BGJ398, 3-(2,6-Dichloro-3,5-dimethoxy-phenyl)-1-{6-[4-(4-ethyl-piperazin-1-yl)-phenylamino]-pyrimidin-4-yl}-1-methyl-urea, reference compound]
[1]
  basal and bFGF-induced phosphorylation of FRS2Y436 (result in words): reduced basal and bFGF-induced phosphorylation
ERK (pT202/Y204)
  basal and bFGF-induced phosphorylation of ERK (result in words): inhibited basal and bFGF-induced phosphorylation
Human cancer cell lines
  viability (result in words): reduced viability
DMS114
  concentration at which significant reduction of transwell migration was observed: 1 µM
pFRS2Y436
  pFRS2 Y436 in tumor tissues by IHC (result in words): No clear difference in pFRS2 Y436
DAOY cells
  EC50: 0.47 µM
DAOY cells; Homo sapiens, Daoy
  EC50: 0.468 µM

## Oc1cc(Cl)cc2c1NC(c1ccc(Cl)cc1)C1CC=CC21 (centres unmarked) [Compound 12]
[2]; 72h, 3 replicas, NR = No response (Summary sheet)
  MEC: 9.85 µM
[2]; 72 h, summary sheet
  MTT (MEC) Minimum effective concentration: 9.85 µM
[3]
  AC50 at 72 h: 17.5 µM
DAOY cells; DAOY, bFGF-induced, 1, 5 and 10 µM
  functional activity in SIA (result in words): reduced invasion comparable to the parent compound 7
[4]; pH 7.4, liver microsomes, read-out: t1/2
  half-life at 1 µM: 2.5 min
[4]; pH 7.4, read-out: Metabolic stability - Intrinsic clearance (CI)
  microsomal CLint at 1 µM: 555 µL/min/mg
Caco-2 cells
  Comments: A2B permeation (result in words): Test compound not detectable in receiver compartments A2B. High C0 value A2B and B2A. Recovery low B2A. Possible solubility or binding issues. Accuracy of result questionable.
[5]; Caco-2, Mean Papp B-A, Caco-2, summary sheet
  Papp B→A at 120 min, 10 μM: 7.53 ×10⁻⁶ cm/s
[5]; Caco-2, pH 7.4, Mean % Recovery A2B, HBSS/HBSS, pH 7.4/7.4
  recovery at 120 min, 10 µM: 51.5%
[5]; Caco-2, pH 7.4, Mean % Recovery B2A, HBSS/HBSS, pH 7.4/7.4
  recovery at 120 min, 10 µM: 14.4%
[5]; Caco-2, pH 7.4, Mean Papp B2A, HBSS/HBSS, pH 7.4/7.4
  Papp B→A at 120 min, 10 μM: 7.53 ×10⁻⁶ cm/s
[5]; Caco-2, pH 7.4, Papp B2A Replicate 1, HBSS/HBSS, pH 7.4/7.4
  Papp B→A at 120 min, 10 μM: 6.28 ×10⁻⁶ cm/s
[5]; Caco-2, pH 7.4, Papp B2A Replicate 2, HBSS/HBSS, pH 7.4/7.4
  Papp B→A at 120 min, 10 μM: 8.78 ×10⁻⁶ cm/s
[6]; PBS, aqueous buffer, thermodynamic from solid, read-out: Mean Solubility
  solubility: < 1 µM
[6]; PBS, aqueous buffer, thermodynamic from solid, read-out: Solubility Replicate 1
  solubility: < 1 µM
[6]; PBS, aqueous buffer, thermodynamic from solid, read-out: Solubility Replicate 3
  solubility: < 1 µM
[6]; PBS, aqueous buffer, thermodynamic from solid, read-out: Solubility Replicate 4
  solubility: < 1 µM
[6]; aqueous buffer, thermodynamic from solid, PBS, overnight, summary sheet
  solubility thermodynamic: < 1 µM
[6]; summary sheet
  Solubility (class in words): Very slightly
